Measurements published in patent US7884244B2, “Therapeutic fluoroethylcyano guanidines” (Allergan, Inc., priority 2007, dated 2011).

Tests used:
Format in all cases: cell-based
alpha2A receptor = molecular target: T1, alpha2A receptor (Homo sapiens, UniProt P08913); assay: Receptor Selection and Amplification Technology (RSAT) assay, alpha2A
T1 construct: expressed in transfected cells; host or cells: NIH-3T3 cells
T1 sequence (P08913 1-465): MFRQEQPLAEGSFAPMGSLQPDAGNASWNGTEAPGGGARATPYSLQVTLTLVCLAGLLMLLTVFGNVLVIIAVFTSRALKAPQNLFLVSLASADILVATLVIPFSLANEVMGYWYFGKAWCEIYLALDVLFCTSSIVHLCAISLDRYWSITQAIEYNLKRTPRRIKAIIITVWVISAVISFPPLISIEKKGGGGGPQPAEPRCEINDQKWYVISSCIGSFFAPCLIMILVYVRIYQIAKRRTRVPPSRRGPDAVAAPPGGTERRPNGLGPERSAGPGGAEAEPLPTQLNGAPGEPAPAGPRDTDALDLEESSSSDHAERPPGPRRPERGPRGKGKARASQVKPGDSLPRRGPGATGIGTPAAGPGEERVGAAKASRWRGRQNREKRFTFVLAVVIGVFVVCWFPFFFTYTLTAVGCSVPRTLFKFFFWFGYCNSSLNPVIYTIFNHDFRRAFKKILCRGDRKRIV
Protocol: (§1) The RSAT assay measures a receptor-mediated loss of contact inhibition that results in selective proliferation of receptor-containing cells in a mixed population of confluent cells. The increase in cell number is assessed with an appropriate transfected marker gene such as […]-galactosidase, the activity of which can be easily measured in a 96-well format. Receptors that activate the G protein, Gq, elicit this response. Alpha2 receptors, which normally couple to Gi, activate the RSAT response when coexpressed with a hybrid Gq protein that has a Gi receptor recognition domain, called Gq/i5.
(§2) NIH-3T3 cells are plated at a density of 2×10^6 cells in 15 cm dishes and maintained in Dulbecco's modified Eagle's medium supplemented with 10% calf serum. One day later, cells are cotransfected by calcium phosphate precipitation with mammalian expression plasmids encoding p-SV-[…]-galactosidase (5-10 μg), receptor (1-2 μg) and G protein (1-2 μg). 40 μg salmon sperm DNA may also be included in the transfection mixture. Fresh media is added on the following day and 1-2 days later, cells are harvested and frozen in 50 assay aliquots. Cells are thawed and 100 μl added to 100 μl aliquots of various concentrations of drugs in triplicate in 96-well dishes. Incubations continue 72-96 hr at 37° C. After washing with phosphate-buffered saline, […]-galactosidase enzyme activity is determined by adding 200 μl of the chromogenic substrate (consisting of 3.5 mM o-nitrophenyl-[…]-D-galactopyranoside and 0.5% nonidet P-40 in phosphate buffered saline), incubating overnight at 30° C. and measuring optical density at 420 nm. The absorbance is a measure of enzyme activity, which depends on cell number and reflects a receptor-mediated cell proliferation. The efficacy or intrinsic activity is calculated as a ratio of the maximal effect of the drug to the maximal effect of a standard full agonist for each receptor subtype. Brimonidine, also called UK14304, the chemical structure of which is shown below, is used as the standard agonist for the alpha2A, alpha2B and alpha2C receptors. The EC50 is the concentration at which the drug effect is half of its maximal effect.
(§3) The results of the RSAT assay with several exemplary compounds of the invention are disclosed in Table 1 above together with the chemical formulas of these exemplary compounds. EC50 values are nanomolar. NA stands for “not active” at concentrations less than 10 micromolar. IA stands for “intrinsic activity.”

alpha2B receptor = molecular target: T2, alpha2B receptor (Homo sapiens, UniProt P18089); assay: Receptor Selection and Amplification Technology (RSAT) assay, alpha2B; conditions: for EC50: read-out: Alpha 2B EC50; for Alpha 2B IA (intrinsic activity): ratio of maximal effect of drug to maximal effect of standard full agonist brimonidine (UK14304)
T2 construct: expressed in transfected cells; host or cells: NIH-3T3 cells
T2 sequence (P18089 1-450): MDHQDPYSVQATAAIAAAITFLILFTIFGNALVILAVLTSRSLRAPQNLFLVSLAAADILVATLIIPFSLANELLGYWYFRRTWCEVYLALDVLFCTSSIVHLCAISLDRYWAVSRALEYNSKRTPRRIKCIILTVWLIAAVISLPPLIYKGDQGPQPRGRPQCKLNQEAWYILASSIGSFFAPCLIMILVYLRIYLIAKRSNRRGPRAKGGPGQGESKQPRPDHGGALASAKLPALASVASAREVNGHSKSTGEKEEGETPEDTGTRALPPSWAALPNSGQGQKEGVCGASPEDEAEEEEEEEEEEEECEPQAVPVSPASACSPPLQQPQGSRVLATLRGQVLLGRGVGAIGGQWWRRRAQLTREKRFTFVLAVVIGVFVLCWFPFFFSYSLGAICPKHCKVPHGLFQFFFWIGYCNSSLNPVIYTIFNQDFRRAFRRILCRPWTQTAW
Protocol: as §1, §2, §3

alpha2C receptor = molecular target: T3, alpha2C receptor (Homo sapiens, UniProt P18825); assay: Receptor Selection and Amplification Technology (RSAT) assay, alpha2C; conditions: for EC50 / Alpha 2C EC50: RSAT, transfected NIH-3T3 cells with Gq/i5, not active = not active at concentrations less than 10 micromolar; for EC50: read-out: Alpha 2C EC50; for Alpha 2C IA (intrinsic activity): ratio of maximal effect of drug to maximal effect of standard full agonist brimonidine (UK14304)
T3 construct: expressed in transfected cells; host or cells: NIH-3T3 cells
T3 sequence (P18825 1-462): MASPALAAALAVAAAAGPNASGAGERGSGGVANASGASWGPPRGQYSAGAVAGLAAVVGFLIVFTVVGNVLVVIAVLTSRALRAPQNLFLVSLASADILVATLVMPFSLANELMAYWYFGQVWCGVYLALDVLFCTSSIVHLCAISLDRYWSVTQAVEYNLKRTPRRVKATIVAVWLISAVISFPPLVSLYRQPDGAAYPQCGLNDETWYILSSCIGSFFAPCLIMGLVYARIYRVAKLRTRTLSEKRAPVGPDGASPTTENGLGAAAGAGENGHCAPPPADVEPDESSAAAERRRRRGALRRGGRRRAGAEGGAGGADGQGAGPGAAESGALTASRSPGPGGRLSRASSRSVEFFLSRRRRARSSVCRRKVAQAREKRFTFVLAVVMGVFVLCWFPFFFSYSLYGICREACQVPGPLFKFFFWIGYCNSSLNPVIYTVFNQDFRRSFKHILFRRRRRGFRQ
Protocol: as §1, §2, §3

[1] = RSAT, transfected NIH-3T3 cells with Gq/i5, not active = not active at concentrations less than 10 micromolar

Alpha 2A EC50 (alpha2A receptor; [1]) | EC50 (alpha2B receptor; [1]) [nM] | Alpha 2B IA (intrinsic activity) (alpha2B receptor) | EC50 (alpha2C receptor) [nM] | Alpha 2C IA (intrinsic activity) (alpha2C receptor) | Alpha 2C EC50 (alpha2C receptor) | Alpha 2B EC50 (alpha2B receptor; [1]) | EC50 (alpha2A receptor; RSAT, transfected NIH-3T3 cells with Gq/i5, not active = not active at concentrations less than 10 micromolar, read-out: Alpha 2A EC50) [nM] | Alpha 2A IA (intrinsic activity) (alpha2A receptor; ratio of maximal effect of drug to maximal effect of standard full agonist brimonidine (UK14304)) | Compound
not active | 73.9 | 0.95 | 914 | 0.51 | – | – | – | – | Cc1cccc2c1CCC2N/C(=N\C#N)NCCF (centres unmarked)
not active | 417 | 0.47 | 1780 | 0.33 | – | – | – | – | N#C/N=C(/NCCF)NC1CCc2ccccc21 (centres unmarked)
not active | 2570 | 0.74 | – | – | not active | – | – | – | N#C/N=C(/NCCF)NC1CCc2c(Br)cccc21 (centres unmarked)
not active | 176 | 0.92 | – | – | not active | – | – | – | N#C/N=C(/NCCF)N[C@H]1CCc2ccccc21
not active | 988 | 0.3 | – | – | not active | – | – | – | N#C/N=C(/NCCF)NC1CCc2c(Cl)cccc21 (centres unmarked)
not active | 282 | 0.36 | – | – | not active | – | – | – | N#C/N=C(/NCCF)NC1CCc2c(F)cccc21 (centres unmarked)
not active | 518 | 0.34 | – | – | not active | – | – | – | Cc1ccc2c(c1)C(N/C(=N\C#N)NCCF)CC2 (centres unmarked)
not active | 94.3 | 1.06 | 1480 | 0.41 | – | – | – | – | Cc1cccc2c1CCCC2N/C(=N\C#N)NCCF (centres unmarked)
not active | 296 | 0.37 | – | – | not active | – | – | – | N#C/N=C(/NCCF)NC1CCCc2c(Cl)cccc21 (centres unmarked)
not active | – | 0.35 | – | – | not active | high | – | – | CCc1cccc2c1CCCC2N/C(=N\C#N)NCCF (centres unmarked)
not active | 231 | 0.69 | 1970 | 0.42 | – | – | – | – | N#C/N=C(/NCCF)NC1CCCc2c(F)cccc21 (centres unmarked)
not active | 1040 | 0.59 | – | – | not active | – | – | – | CCc1cccc2c1CCC2N/C(=N\C#N)NCCF (centres unmarked)
– | 60.1 | 1.09 | 1530 | 0.46 | – | – | 759 | 0.35 | Cc1cccc2c1CC[C@@H]2N/C(=N\C#N)NCCF

Further lines, the compound ahead of its results:

Compound | Alpha 2A EC50 (alpha2A receptor; [1]) | EC50 (alpha2B receptor; [1]) [nM] | Alpha 2B IA (intrinsic activity) (alpha2B receptor) | EC50 (alpha2C receptor) [nM] | Alpha 2C IA (intrinsic activity) (alpha2C receptor) | Alpha 2C EC50 (alpha2C receptor) | Alpha 2B EC50 (alpha2B receptor; [1]) | EC50 (alpha2A receptor; RSAT, transfected NIH-3T3 cells with Gq/i5, not active = not active at concentrations less than 10 micromolar, read-out: Alpha 2A EC50) [nM] | Alpha 2A IA (intrinsic activity) (alpha2A receptor; ratio of maximal effect of drug to maximal effect of standard full agonist brimonidine (UK14304))
N#C/N=C(/NCCF)NCc1cccc(Br)c1 | not active | 1450 | 0.82 | 2640 | 0.32 | – | – | – | –
N#C/N=C(/NCCF)NC1Cc2ccccc2C1 | not active | 783 | 0.35 | – | – | not active | – | – | –
N#C/N=C(/NCCF)NCc1cccc2c1OCC2 | not active | 341 | 0.87 | 358 | 0.58 | – | – | – | –
Cc1cccc(CN/C(=N/C#N)NCCF)c1Cl | not active | 78.9 | 0.93 | 472 | 0.84 | – | – | – | –
N#C/N=C(\NCCF)NC1CCc2ccc(F)cc21 (centres unmarked) | not active | 167 | 0.42 | 376 | 0.4 | – | – | – | –
N#C/N=C(\NCCF)NC1CCc2ccc(Cl)cc21 (centres unmarked) | not active | 232 | 0.31 | 946 | 0.36 | – | – | – | –
N#C/N=C(/NCCF)NC1CCc2cccc(Br)c21 (centres unmarked) | not active | 941 | 0.85 | – | – | not active | – | – | –
N#C/N=C(\NCCF)NC1CCc2cccc(F)c21 (centres unmarked) | not active | 475 | 0.65 | – | – | not active | – | – | –
N#C/N=C(\NCCF)NC1CCc2cccc(Cl)c21 (centres unmarked) | not active | 642 | 0.7 | – | – | not active | – | – | –
N#C/N=C(\NCCF)NC1CCc2ccc(F)c(F)c21 (centres unmarked) | not active | 560 | 0.5 | – | – | not active | – | – | –
N#C/N=C(\NCCF)NC(Cc1ccccc1)c1ccccc1 (centres unmarked) | not active | 98.6 | 0.73 | – | – | not active | – | – | –
